This passage reports Activity, CC50 and inhibition in vivo results from ChEMBL document CHEMBL1140612, “4-Methyl-1,2,3-selenadiazole-5-carboxylic acid amides: antitumor action and cytotoxic effect correlation” (Eur J Med Chem, 2007).

The test system of series [1] is HT-1080. Put plainly: Cytotoxicity against human HT1080 cells after 72 hrs. The class given is functional. Particulars: for CC50: HT-1080, 72 h, read-out: TD50 (the source's name).
Series [2] has as its system MG-22A. Kind of series: Cytotoxicity against mouse MG22A cells after 72 hrs. The class given is functional. Conditions: read-out: TD50 (the source's name).
Series [3] can be described thus: Cytotoxicity against mouse NIH3T3 cells after 72 hrs. Conditions: read-out: TD50. The class given is cell-based.
Series [4] has as its system HT-1080. Kind of series: Effect on nitric oxide production in human HT1080 cells at 100 ug/ml by crystal violet coloration assay. The class given is functional.
The test system of series [5] is MG-22A. Put plainly: Effect on nitric oxide production in mouse MG22A cells at 100 ug/ml by crystal violet coloration assay. The class given is functional.
Series [6] concerns CCRF S-180. Kind of series: Antitumor activity against S180 cells inoculated in ICR mouse assessed as inhibition of tumor growth at 10 mg/kg, ip after 9 days. The class given is functional. Conditions: for inhibition in vivo at 10 mg/kg: CCRF S-180, ip, 216 h, route intraperitoneal.
Series [7] has as its system Mus musculus. Put plainly: Toxicity in ICR mouse assessed as body weight at 10 mg/kg, ip after 9 days. The class given is organism-based. The arrangement: dose 10 mg/kg, route intraperitoneal. Particulars: in vivo, 216 h.
Series [8] concerns MG-22A. Kind of series: Induction of apoptosis in mouse MG22A cells after 72 hrs. The class given is functional, cell-based.
Series [9] has as its system HT-1080. Put plainly: Induction of apoptosis in human HT1080 cells after 72 hrs. The class given is functional, cell-based.
For series [10], the system named is CCRF S-180. Put plainly: Antitumor activity against S180 cells inoculated in ICR mouse assessed as inhibition of tumor growth at 2 mg/kg, ip after 2 days. The class given is functional. Particulars: CCRF S-180, ip, 48 h, route intraperitoneal.
Series [11] has as its system Mus musculus. Put plainly: Toxicity in ICR mouse assessed as body weight at 2 mg/kg, ip after 2 days. The class given is organism-based. The arrangement: dose 2 mg/kg, route intraperitoneal. Conditions: in vivo, 48 h.
For series [12], the system named is HT-1080. Kind of series: Effect on cell morphology in human HT1080 cells after 72 hrs. The class given is functional, cell-based.
Series [13] has as its system CCRF S-180. Kind of series: Antitumor activity against S180 cells inoculated in ICR mouse assessed as inhibition of tumor growth at 10 mg/kg, ip after 8 days. The class given is functional. Conditions: CCRF S-180, ip, 192 h, route intraperitoneal.
For series [14], the system named is Mus musculus. Put plainly: Toxicity in ICR mouse assessed as body weight at 10 mg/kg, ip after 8 days. The class given is organism-based. Also on record: dose 10 mg/kg, route intraperitoneal. Particulars: in vivo, 192 h.

Converted amounts (≈) assume the structure as drawn. The source made the active and inactive calls. The calls are words filed in the database; no cut-off is given here.

On to `Cc1nn[se]c1C(=O)N(C(C)C)C(C)C`, for which the Activity result was “Not toxic” with HT-1080 [1], 29% with HT-1080 [4], 200% in the series on MG-22A [5] and 0% with Mus musculus [7]. The CC50 with MG-22A [2] is 31 µg/mL (≈ 113 µM). Besides, the CC50 at 72 h in [3] amounted to 718 µg/mL (≈ 2620 µM). Also, the inhibition in vivo at 10 mg/kg with CCRF S-180 [6] was -32%.

As for `Cc1nn[se]c1C(=O)N1CCCC1`, the CC50 turned out to be 19 µg/mL (≈ 77.8 µM) with HT-1080 [1] and 33 µg/mL (≈ 135 µM) with MG-22A [2]. For the same compound, the CC50 at 72 h in series [3] was found to be 214 µg/mL (≈ 876 µM). Also, the Activity with HT-1080 [4] was found to be 350%; in the series on MG-22A [5], 350%; in the series on Mus musculus [7], 23%. Also, the result in the series with MG-22A [8] was Active. For the same compound, the inhibition in vivo at 10 mg/kg in the series with CCRF S-180 [6] was 85%.

For the compound `Cc1nn[se]c1C(=O)N1CCCCC1`, the CC50 with HT-1080 [1] came to 31 µg/mL (≈ 120 µM); in the series on MG-22A [2] it was 27 µg/mL (≈ 105 µM). Also, the CC50 at 72 h in series [3] was 123 µg/mL (≈ 476 µM). For the same compound, the figures for the Activity with HT-1080 [4], in the series on MG-22A [5] and with Mus musculus [7] were 100%, 400% and 8%, respectively. Also, in the series on CCRF S-180 [6], the inhibition in vivo at 10 mg/kg worked out at 71%.

With `Cc1nn[se]c1C(=O)N(C)C`, the Activity entry was “Not toxic” in the series with HT-1080 [1], 10% with HT-1080 [4], 63% in the series on MG-22A [5] and 17% in the series on Mus musculus [11]. In addition, the CC50 in the series on MG-22A [2] is 35 µg/mL (≈ 160 µM). The CC50 at 72 h in series [3] was found to be 351 µg/mL (≈ 1610 µM). The outcome in the series on HT-1080 [9] and in the series on MG-22A [8] was Active. For the same compound, the inhibition in vivo at 2 mg/kg in the series with CCRF S-180 [10] amounted to 58%.

For `Cc1nn[se]c1C(=O)N[C@@H](C)c1ccccc1`, the CC50 in the series with HT-1080 [1] worked out at 31 µg/mL (≈ 105 µM); in the series on MG-22A [2], 32 µg/mL (≈ 109 µM). For the same compound, the CC50 at 72 h in [3] is 407 µg/mL (≈ 1380 µM). Further, the Activity in the series with HT-1080 [4] is reported as 300%; in the series on MG-22A [5], 200%; in the series on Mus musculus [14] it was 0%. Moreover, in the series with HT-1080 [12], the outcome was Active. Moreover, the inhibition in vivo at 10 mg/kg in the series on CCRF S-180 [13] was -23%.

`Cc1nn[se]c1C(=O)N[C@H](C)c1ccccc1`: the CC50 in the series on HT-1080 [1] is 100 µg/mL (≈ 340 µM); with MG-22A [2], 29 µg/mL (≈ 98.6 µM). For the same compound, the CC50 at 72 h in series [3] was determined as 195 µg/mL (≈ 663 µM). The Activity in the series with HT-1080 [4] stood at 17%; in the series with MG-22A [5] it was 400%; in the series on Mus musculus [7] it was 3%. Besides, the outcome in the series on HT-1080 [12] was inactive. Further, the inhibition in vivo at 10 mg/kg in the series with CCRF S-180 [6] was 20%.

In the case of `Cc1nn[se]c1C(=O)N1CCOCC1`, the Activity entry in the series on HT-1080 [1] was “Not toxic”; with HT-1080 [4] it was 11%; with MG-22A [5], 250%; in the series with CCRF S-180 [6], “Non-toxic”; in the series on Mus musculus [7], 8%. Besides, the CC50 with MG-22A [2] amounted to 34 µg/mL (≈ 131 µM). Besides, the CC50 at 72 h in series [3] was found to be 280 µg/mL (≈ 1080 µM).
